Assay results from patent US6608086B2, “Dihydropyridines and new uses thereof” (Synaptic Pharmaceutical Corporation, priority 1993, dated 2003).
Where a name gives a salt, the structure may show the parent alone. Read-outs that look alike come from different tables or passages of the source.

What was measured:
[1] = molecular target: T1, α2C receptor (Homo sapiens, UniProt P18825); assay: Competition binding, [3H]rauwolscine, human α2C receptor
T1 construct: host or cells: LM(tk-) cells, line L-α2C
T1 sequence (P18825 1-462): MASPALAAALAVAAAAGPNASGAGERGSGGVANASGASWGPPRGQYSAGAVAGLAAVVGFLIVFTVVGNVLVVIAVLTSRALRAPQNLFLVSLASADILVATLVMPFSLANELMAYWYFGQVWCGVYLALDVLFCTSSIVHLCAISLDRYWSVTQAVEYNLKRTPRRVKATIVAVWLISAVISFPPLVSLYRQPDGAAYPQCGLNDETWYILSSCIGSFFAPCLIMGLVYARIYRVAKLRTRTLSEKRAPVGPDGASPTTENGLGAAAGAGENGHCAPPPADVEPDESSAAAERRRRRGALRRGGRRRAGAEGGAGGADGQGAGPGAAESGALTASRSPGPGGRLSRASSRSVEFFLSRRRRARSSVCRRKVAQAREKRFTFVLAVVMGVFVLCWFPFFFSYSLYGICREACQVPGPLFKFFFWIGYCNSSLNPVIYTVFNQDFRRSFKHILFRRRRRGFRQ
In short: (§1)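 Using 25 mM glycylglycine buffer at pH 7.6 (room temperature), membranes from LM(tk−) cells carrying α2A, α2B or α2C were competed against 0.5 nM [3H]rauwolscine to equilibrium. Separation was by GF/B filtration; phentolamine (10 μM) set nonspecific binding.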

[2] = molecular target: T2, L-type calcium channel (Rattus norvegicus, UniProt P22002); assay: Competition binding of [3H]nitrendipine to membrane fragments of rat cardiac muscle
T2 construct: membrane fragments of rat cardiac muscle; from tissue; host or cells: rat cardiac muscle membranes

[3] = molecular target: T3, α1C Human Adrenergic Receptor (Homo sapiens, UniProt P35348); assay: Radioligand binding, [3H]prazosin, cloned human α1C adrenergic receptor
T3 construct: The entire coding region of α1C (1401 bp); expressed in transfected cells
T3 sequence (P35348 1-466): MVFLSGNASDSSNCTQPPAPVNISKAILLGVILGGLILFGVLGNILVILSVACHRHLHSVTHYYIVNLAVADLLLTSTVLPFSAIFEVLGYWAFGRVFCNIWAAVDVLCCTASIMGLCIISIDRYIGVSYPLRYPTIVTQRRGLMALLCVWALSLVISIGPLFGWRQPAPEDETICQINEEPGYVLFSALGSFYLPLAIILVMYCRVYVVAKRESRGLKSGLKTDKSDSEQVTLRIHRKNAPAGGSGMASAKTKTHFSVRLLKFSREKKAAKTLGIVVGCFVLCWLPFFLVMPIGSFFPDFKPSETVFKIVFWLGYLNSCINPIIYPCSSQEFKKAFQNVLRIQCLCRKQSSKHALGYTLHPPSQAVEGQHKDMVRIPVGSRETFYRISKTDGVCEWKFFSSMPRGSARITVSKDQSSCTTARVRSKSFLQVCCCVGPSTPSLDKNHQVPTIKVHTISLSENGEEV
In short: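 Read-out is filter-retained [3H]prazosin (0.5 nM) bound to membranes of LM(tk−) cells stably carrying the human α1C receptor. Incubation ran 20 min at 37° C. at pH 7.5, with 10 μM phentolamine marking nonspecific binding.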

[4] = molecular target: T4, α2A receptor (Homo sapiens, UniProt P08913); assay: Competition binding, [3H]rauwolscine, human α2A receptor
T4 construct: host or cells: LM(tk-) cells, line L-α2A
T4 sequence (P08913 1-465): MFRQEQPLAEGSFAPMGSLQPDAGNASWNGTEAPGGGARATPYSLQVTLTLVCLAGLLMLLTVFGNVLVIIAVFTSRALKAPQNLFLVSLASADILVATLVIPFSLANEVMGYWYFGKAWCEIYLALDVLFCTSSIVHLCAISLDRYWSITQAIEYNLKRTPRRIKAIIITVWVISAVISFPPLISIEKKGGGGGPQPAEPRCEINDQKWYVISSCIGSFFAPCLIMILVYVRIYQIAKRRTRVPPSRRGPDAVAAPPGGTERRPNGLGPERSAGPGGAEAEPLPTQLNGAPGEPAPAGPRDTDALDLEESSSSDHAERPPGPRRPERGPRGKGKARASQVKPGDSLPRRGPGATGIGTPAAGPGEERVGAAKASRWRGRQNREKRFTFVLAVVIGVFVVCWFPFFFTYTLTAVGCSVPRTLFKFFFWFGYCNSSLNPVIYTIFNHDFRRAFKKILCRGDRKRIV
In short: as §1

[5] = cloned human receptor in LM(tk-) cell membranes, SEM and n in lines below
[6] = [3H]rauwolscine, LM(tk-) cell line L-α2C, SEM and n in lines below, read-out: pKi alpha-2 2c (converted)
[7] = [3H]nitrendipine, rat cardiac muscle membranes, SEM and n in lines below, read-out: pKi Ca (converted)
[8] = cloned human receptor in LM(tk-) cell membranes, SEM and n in lines below, read-out: pKi alpha-1 1c (converted)
[9] = [3H]rauwolscine, LM(tk-) cell line L-α2A, SEM and n in lines below, read-out: pKi alpha-2 2a (converted)
[10] = [3H]rauwolscine, LM(tk-) cell line L-α2C, SEM and n in lines below
[11] = [3H]rauwolscine, LM(tk-) cell line L-α2A, SEM and n in lines below

T2 sequence (P22002 whole entry, other chains not shown, the tested form may be a part): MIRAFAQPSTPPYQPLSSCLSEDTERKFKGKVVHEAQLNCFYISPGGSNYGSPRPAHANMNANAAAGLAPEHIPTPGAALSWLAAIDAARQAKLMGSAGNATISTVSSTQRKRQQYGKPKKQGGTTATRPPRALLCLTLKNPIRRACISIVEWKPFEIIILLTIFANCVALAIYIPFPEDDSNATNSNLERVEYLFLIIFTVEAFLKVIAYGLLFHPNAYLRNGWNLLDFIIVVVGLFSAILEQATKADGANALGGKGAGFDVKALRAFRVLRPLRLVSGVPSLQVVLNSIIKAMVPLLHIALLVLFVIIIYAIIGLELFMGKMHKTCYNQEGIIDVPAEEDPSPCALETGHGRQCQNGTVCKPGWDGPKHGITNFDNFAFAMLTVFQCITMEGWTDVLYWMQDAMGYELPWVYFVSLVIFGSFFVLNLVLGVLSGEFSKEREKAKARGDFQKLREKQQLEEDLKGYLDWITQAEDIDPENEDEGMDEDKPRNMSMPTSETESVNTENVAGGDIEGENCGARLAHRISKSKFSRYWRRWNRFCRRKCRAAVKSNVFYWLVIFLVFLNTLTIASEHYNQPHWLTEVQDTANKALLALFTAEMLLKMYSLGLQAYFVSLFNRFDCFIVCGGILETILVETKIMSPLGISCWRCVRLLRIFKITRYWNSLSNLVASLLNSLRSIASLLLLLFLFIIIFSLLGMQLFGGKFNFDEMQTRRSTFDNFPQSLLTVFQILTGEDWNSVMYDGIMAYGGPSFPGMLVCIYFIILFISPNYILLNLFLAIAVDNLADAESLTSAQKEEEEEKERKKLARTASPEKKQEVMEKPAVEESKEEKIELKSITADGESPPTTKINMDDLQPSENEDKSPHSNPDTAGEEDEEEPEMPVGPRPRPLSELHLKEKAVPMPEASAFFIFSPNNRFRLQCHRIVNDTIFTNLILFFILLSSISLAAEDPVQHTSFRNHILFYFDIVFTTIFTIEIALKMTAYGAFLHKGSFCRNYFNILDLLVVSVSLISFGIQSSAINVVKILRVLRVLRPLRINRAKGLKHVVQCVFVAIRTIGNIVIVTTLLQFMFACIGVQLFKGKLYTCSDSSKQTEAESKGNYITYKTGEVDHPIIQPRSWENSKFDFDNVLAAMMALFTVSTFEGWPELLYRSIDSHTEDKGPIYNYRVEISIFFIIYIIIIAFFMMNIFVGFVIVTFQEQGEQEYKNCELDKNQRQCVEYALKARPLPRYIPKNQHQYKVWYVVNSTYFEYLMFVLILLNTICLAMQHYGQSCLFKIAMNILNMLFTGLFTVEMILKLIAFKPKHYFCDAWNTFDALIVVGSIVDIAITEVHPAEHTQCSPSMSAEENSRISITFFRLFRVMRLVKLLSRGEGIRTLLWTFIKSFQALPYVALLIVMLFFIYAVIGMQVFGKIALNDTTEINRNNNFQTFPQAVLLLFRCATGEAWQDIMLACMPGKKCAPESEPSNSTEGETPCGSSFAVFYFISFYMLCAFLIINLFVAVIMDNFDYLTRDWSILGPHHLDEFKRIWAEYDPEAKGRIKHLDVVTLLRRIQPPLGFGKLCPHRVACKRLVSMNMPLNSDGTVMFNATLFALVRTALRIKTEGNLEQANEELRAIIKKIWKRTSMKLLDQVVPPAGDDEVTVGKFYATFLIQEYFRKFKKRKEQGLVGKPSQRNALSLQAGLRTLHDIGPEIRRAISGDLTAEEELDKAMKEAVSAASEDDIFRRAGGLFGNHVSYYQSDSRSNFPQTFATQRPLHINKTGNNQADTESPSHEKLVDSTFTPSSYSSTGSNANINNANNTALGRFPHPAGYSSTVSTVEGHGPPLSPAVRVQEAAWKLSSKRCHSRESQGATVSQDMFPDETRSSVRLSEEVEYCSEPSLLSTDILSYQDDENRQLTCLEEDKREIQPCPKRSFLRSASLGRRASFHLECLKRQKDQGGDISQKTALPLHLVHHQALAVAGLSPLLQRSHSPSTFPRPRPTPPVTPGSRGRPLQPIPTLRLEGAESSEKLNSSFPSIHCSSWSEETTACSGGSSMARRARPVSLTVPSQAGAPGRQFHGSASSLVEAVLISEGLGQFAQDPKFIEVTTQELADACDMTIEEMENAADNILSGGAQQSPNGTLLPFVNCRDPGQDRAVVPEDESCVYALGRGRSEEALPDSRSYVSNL
T2 sequence (P54290 25-944 partner limits assumed, other chains not shown): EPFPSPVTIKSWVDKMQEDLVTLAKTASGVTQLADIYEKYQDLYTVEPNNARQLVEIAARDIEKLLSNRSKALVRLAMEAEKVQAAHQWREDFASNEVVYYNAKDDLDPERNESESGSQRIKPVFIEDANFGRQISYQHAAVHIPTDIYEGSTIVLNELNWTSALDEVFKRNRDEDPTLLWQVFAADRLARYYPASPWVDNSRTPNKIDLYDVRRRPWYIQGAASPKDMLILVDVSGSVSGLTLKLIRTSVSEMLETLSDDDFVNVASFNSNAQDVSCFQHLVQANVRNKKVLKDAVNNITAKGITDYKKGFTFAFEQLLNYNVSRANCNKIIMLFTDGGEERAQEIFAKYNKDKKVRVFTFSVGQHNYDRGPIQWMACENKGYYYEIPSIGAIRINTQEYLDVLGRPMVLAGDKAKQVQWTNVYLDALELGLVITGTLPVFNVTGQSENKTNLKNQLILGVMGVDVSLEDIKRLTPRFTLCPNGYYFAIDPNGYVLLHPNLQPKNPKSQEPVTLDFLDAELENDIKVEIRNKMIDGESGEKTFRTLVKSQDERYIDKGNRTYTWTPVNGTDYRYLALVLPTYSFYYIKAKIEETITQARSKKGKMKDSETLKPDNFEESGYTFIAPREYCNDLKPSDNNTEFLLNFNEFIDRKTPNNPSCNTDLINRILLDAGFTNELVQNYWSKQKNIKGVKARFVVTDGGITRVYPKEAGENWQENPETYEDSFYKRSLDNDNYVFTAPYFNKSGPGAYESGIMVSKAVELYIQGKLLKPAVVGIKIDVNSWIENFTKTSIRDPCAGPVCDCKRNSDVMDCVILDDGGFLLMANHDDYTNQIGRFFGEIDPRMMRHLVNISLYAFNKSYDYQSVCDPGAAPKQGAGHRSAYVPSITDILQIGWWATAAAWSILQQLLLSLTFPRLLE
T2 sequence (P54290 945-1091 partner limits assumed, other chains not shown): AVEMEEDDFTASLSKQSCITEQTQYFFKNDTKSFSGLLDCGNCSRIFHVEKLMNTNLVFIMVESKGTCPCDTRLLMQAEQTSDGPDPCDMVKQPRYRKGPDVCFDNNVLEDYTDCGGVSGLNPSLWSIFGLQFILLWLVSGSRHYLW

| Ki [1, 6] [µM] | Ki [2, 7] [µM] | Ki [3, 8] [µM] | Ki [4, 9] [µM] | Molecule | pKi alpha-1 1c [3, 5] | other results |
| --- | --- | --- | --- | --- | --- | --- |
| – | – | – | – | 5-Acetyl-1,4-dihydro-2,6-dimethyl-4-(4-nitrophenyl)-3-[3-(4,4-diphenylpiperidin-1-yl)propoxy]carbonylpyridine hydrochloride hemihydrate [Example 49] | 8.56 | pKi alpha-2 2c [1]: 6.86; pKi Ca [2]: 5.37; pKi alpha-2 2a [4]: 6.63 |
| 0.0813 | 7.41 | 0.000234 | 0.282 | COC(=O)C1=C(C)NC(C)=C(C(=O)NCCCN2CCC(c3ccccc3)CC2)C1c1ccc([N+](=O)[O-])cc1 (racemic) [(±)-45, (±)-1,4-Dihydro-3-methoxycarbonyl-2,6-dimethyl-4-(4-nitrophenyl)-5-{N-[3-(4-phenylpiperidin-1-yl)propyl]}carboxamidopyridine hydrochloride hemihydrate] | – | – |
| – | – | – | – | CNC(=O)C1=C(C)NC(C)=C(C(=O)NCCCN2CCC(c3ccccc3)(c3ccccc3)CC2)C1c1ccc([N+](=O)[O-])cc1 (racemic) [(±)-119, 1,4-Dihydro-2,6-dimethyl-5-(N-Methyl) carboxamido-4-(4-nitrophenyl)-3-{N-[3-(4,4-diphenylpiperidin-1-yl)propyl]}carboxamidopyridine] | – | pKi alpha-2 2c [1]: 6.49; Ki ([2]; pKi Ca): 7.41 µM; pKi alpha-1 1c ([3]; cloned human α1C receptor, LM(tk−) cell membranes): 8.5; pKi alpha-2 2a [4]: 6.4 |
| 0.0138 | 4.37 | 0.000182 | 0.339 | COC(=O)C1=C(C)NC(C)=C(C(=O)NCCCN2CCC(c3ccccc3)CC2)C1c1ccc([N+](=O)[O-])cc1 (single isomer, unassigned; (-)) [(−)-45, 1,4-Dihydro-3-methoxycarbonyl-2,6-dimethyl-4-(4-nitrophenyl)-5-{N-[3-(4-phenylpiperidin-1-yl)propyl]}carboxamidopyridine hydrochloride hemihydrate] | – | – |
| 0.0513 | 1000 | 0.00589 | 0.102 | COC(=O)C1=C(C)NC(C)=C(C(=O)NCCCCN2CCC(c3ccccc3)CC2)C1c1ccc([N+](=O)[O-])cc1 (centres unmarked) [Example 3, 1,4-Dihydro-3-methoxycarbonyl-2,6-dimethyl-4-(4-nitrophenyl)-5-{N-[4-(4-phenylpiperidin-1-yl)butyl]}carbozamidopyridine hydrochloride hydrate] | – | – |
| – | – | – | – | CNC(=O)C1=C(C)NC(C)=C(C(=O)NCCCN2CCC(c3ccccc3)(c3ccccc3)CC2)C1c1ccc([N+](=O)[O-])cc1 (centres unmarked) [Example 38, 1,4-Dihydro-2,6-dimethyl-5-(N-methyl)carboxamido-4-(4-nitrophenyl)-3-{N-[3-(4,4-diphenylpiperidin-1-yl)propyl]}carboxamidopyridine] | 8.50 | pKi alpha-2 2c [1]: 6.49; Ki ([2]; pKi Ca): 7.08 µM; pKi alpha-2 2a [4]: 6.40 |
| 0.417 | 0.479 | 0.000525 | 0.0174 | COC(=O)C1=C(C)NC(C)=C(C(=O)OCCCN2CCC(c3ccccc3)CC2)C1c1ccc([N+](=O)[O-])cc1 (centres unmarked) [Example 48, 1,4-Dihydro-5-methazycarbonyl-2,6-dimethyl-4-(4-nitrophenyl)-3-[3-(4-phenylpiperidin-1-yl)propoxy]}carbonylpyridine hydrochloride hydrate] | – | – |
| 0.661 | 9.55 | 0.0851 | 1.51 | COC(=O)C1=C(C)NC(C)=C(C(=O)OCCCN2CCCCC2)C1c1ccc([N+](=O)[O-])cc1 (centres unmarked) [Example 50, 1,4-Dihydro-5-methoxycarbonyl-2,6-dimethyl-4-(4-nitrophenyl)-3-[3-(piperidin-1-yl)propoxy]carbonylpyridine hydrochloride etherate] | – | – |
| 0.251 | 1000 | 0.479 | 0.447 | COC(=O)C1=C(C)NC(C)=C(C(=O)NCCCN2CCCCC2)C1c1ccc([N+](=O)[O-])cc1 (centres unmarked) [Example 51, 1,4-Dihydro-3-methoxycarbonyl-2,6-dimethyl-4-(4-nitrophenyl)-5-{N-[3-(piperidin-1-yl)propyl]}carboxamidopyridine hydrochloride etherate] | – | – |
| – | – | – | – | COC(=O)C1=C(C)NC(C)=C(C(=O)NCCCCN2CCC(c3ccccc3)(c3ccccc3)CC2)C1c1ccc([N+](=O)[O-])cc1.Cl.O (centres unmarked) [Example 53, 1,4-Dihydro-3-methoxycarbonyl-2,6-dimethyl-4-(4-nitrophenyl)-5-{N-[4-(4,4-diphenylpiperidin-1-yl)butyl]}carboxamidopyridine hydrochloride hydrate] | 7.83 | pKi alpha-2 2c [1, 10]: 6.67; pKi Ca ([2]; [3H]nitrendipine, rat cardiac muscle membranes, SEM and n in lines below): 5.54; pKi alpha-2 2a [4, 11]: 6.18 |
| 0.158 | 1000 | 0.603 | 0.195 | COC(=O)C1=C(C)NC(C)=C(C(=O)NCCCN2CCc3cc(OC)c(OC)cc3C2)C1c1ccc([N+](=O)[O-])cc1 (centres unmarked) [Example 57, 1,4-Dihydro-3-methoxycarbonyl-5-{N-[3-(1,2,3,4-tetrahydro-6,7-dimethoxyisoquinolin-2-yl)propyl]}carboxamido-2,6-dimethyl-4-(4-nitrophenyl)pyridine hydrochloride hydrate] | – | – |
| – | – | – | – | CCC1=C(C(=O)NN2CCOCC2)C(c2ccc([N+](=O)[O-])cc2)C(C(=O)NCCCN2CCC(c3ccccc3)(c3ccccc3)CC2)=C(COC)N1 (centres unmarked) [Example 248, 6-Ethyl-1,4-dihydro-2-((methyl)oxy)methyl-5-N-(morpholin-4yl)carboxamido-4-(4-nitro)phenyl-3-(N-(3-(4,4-diphenylpiperidin-1-yl)propyl))carboxamidopyridine] | – | Ki ([1]; [3H]rauwolscine, human α2C receptor, LM(tk-) cells, read-out: PKi alpha-2 2c (converted)): 0.525 µM; melting point: 112 °C (dec.); Ki ([3]; cloned human α1C receptor, LM(tk-) cell membranes, read-out: PKi alpha-1 1c (converted)): 0.174 µM; Ki ([4]; [3H]rauwolscine, human α2A receptor, LM(tk-) cells, read-out: PKi alpha-2 2a (converted)): 1 µM |

| Molecule | Ki [1, 6] [µM] | Ki [2, 7] [µM] | Ki [3, 8] [µM] | Ki [4, 9] [µM] | pKi alpha-1 1c [3, 5] | other results |
| --- | --- | --- | --- | --- | --- | --- |
| CC1=C(C(=O)NCCCN2CCC(c3ccccc3)(c3ccccc3)CC2)C(c2ccc([N+](=O)[O-])cc2)C(C(=O)N(C)C)=C(C)N1 (centres unmarked) [Example 39, 1,4-Dihydro-2,6-dimethyl-3-(N,N-dimethyl) carboxamido-4-(4-nitrophenyl)-5-{N-[3-(4,4-diphenylpiperidin-1-yl)propyl]}carboxamidopyridine] | – | 44.7 | – | – | 7.23 | pKi alpha-2 2c [1, 10]: 6.09; melting point: 135 °C |
| CC(=O)C1=C(C)NC(C)=C(C(=O)NCCCN2CCC(c3ccccc3)(c3ccccc3)CC2)C1c1ccc([N+](=O)[O-])cc1 (centres unmarked) [Example 47, 5-Acetyl-1,4-dihydro-2,6-dimethyl-4-(4-nitrophenyl)-3-{N-[3-(4,4-diphenylpiperidin-1-yl)propyl]}carboxamidopyridine] | – | 17.8 | – | – | 8.93 | pKi alpha-2 2c [1, 10]: 6.43; pKi alpha-2 2a [4, 11]: 6.22 |
